Reference: US6552188B2, “Unsymmetrical cyclic diamine compound” (Kowa Co., Ltd., priority 2001, dated 2003)
Where two headings read alike, the source gives them in different places.

Tested on: adhesion of U937 cells to human umbilical venous endothelial cells (HUVEC)
Assay: Inhibitory effect on cell adhesion (fluorescence-labeled U937 adhered to IL-1β- or TNFα-stimulated HUVEC)
Format: cell-based
Conditions: compound at 1 μM
Protocol: (Inhibitory Effect on Cell Adhesion)
This test was conducted by reference to the method of Ross et al. (J. Biol. Chem., 267, 8537-8543 (1992)). More specifically, after human umbilical venous endothelial cells (HUVEC) were cultured on a 48-well plate to confluent growth, IL-1β or TNFα was added thereto. Upon elapsed time of 5 hours after the addition, U937, which is a human monocytic/histocytic cell fluorescence-labeled with PKH2 (product of Dainippon Pharmaceutical Co., Ltd.), was added in a proportion of 1×10^6 cells per well. After the plate was left at rest at room temperature for 1 hour, unadhered U937 was washed out and lysed in 1% Triton X-100 to measure a remaining fluorescence intensity (excitation wavelength: 480 nm; measuring wavelength: 530 nm). HUVEC and U937 were cultured in EGM-2 (product of Sanko Junyaku K.K.) and 10% FCS-containing RPMI1640, respectively. Each test agent was added to HUVEC upon the addition of IL-1β or TNFα and to U937 24 hours prior to the cell adhesion test. The inhibitory activity was calculated out according to the equation [100−(C−B)/(A−B)×100(%)], wherein A is the number of U937 cells adhered to HUVEC stimulated by IL-1β or TNFα when no test agent was added, B is the number of U937 cells adhered to HUVEC not stimulated by IL-1β or TNFα when no test agent was added, and C is the number of U937 cells adhered to HUVEC stimulated by IL-1β or TNFα when the test agent was added. As control compounds, Test Compound 1 described in Japanese Patent Application Laid-Open No. 9-143075 and dilazep described in Japanese Patent Application Laid-Open No. 11-92382 were simultaneously evaluated.

[1] = U937 adhesion to HUVEC stimulated by IL-1β, read-out: Percent inhibition (%) Stimulation by IL-1β
[2] = U937 adhesion to HUVEC stimulated by TNFα, read-out: Percent inhibition (%) Stimulation by TNFα

| Structure (SMILES) | inhibition at 1 µM [1] | inhibition at 1 µM [2] |
| --- | --- | --- |
| COc1cc(-c2cc(CN3CCN(Cc4ccnc(-c5ccccc5)c4)CC3)ccn2)cc(OC)c1OC [Example 21, N-[(2-phenylpyridin-4-yl)methyl]-N′-[[2-(3,4,5-trimethoxyphenyl)pyridin-4-yl]methyl]piperazine difumarate] | 44% | 60% |
| COc1cc(-c2cc(CN3CCN(CCc4ccc5c(OC)c(OC)c(OC)cc5c4)CC3)ccn2)cc(OC)c1OC [Example 37, N-[2-(5,6,7-trimethoxynaphthalen-2-yl)ethyl]-N′-[[2-(3,4,5-trimethoxyphenyl)pyridin-4-yl]methyl]-piperazine dimaleate] | 68% | 56% |
| COc1cc(/C=C/CCCN2CCCN(Cc3ccnc(-c4cc(OC)c(OC)c(OC)c4)c3)CC2)cc(OC)c1OC [Example 41, N-[(E)-5-(3,4,5-trimethoxyphenyl)-4-pentenyl]-N′-[[2-(3,4,5-trimethoxyphenyl)pyridin-4-yl]methyl]homopiperazine difumarate] | 56% | 67% |
| COc1ccc(-c2cc(CN3CCN(Cc4ccnc(-c5cc(OC)c(OC)c(OC)c5)c4)CC3)ccn2)cc1OC [Example 26, N-[[2-(3,4-dimethoxyphenyl)pyridin-4-yl]methyl]-N′-[[2-(3,4,5-trimethoxyphenyl)pyridin-4-yl]methyl]piperazine difumarate] | 75% | 69% |
| COc1cc(-c2cccc(CN3CCCN(Cc4ccnc(-c5cc(OC)c(OC)c(OC)c5)c4)CC3)c2)cc(OC)c1OC [Example 19, N-[3-(3,4,5-trimethoxyphenyl)benzyl]-N′-[[2-(3,4,5-trimethoxyphenyl)pyridin-4-yl]methyl]homopiperazine difumarate] | 33% | 58% |
| COc1ccc(-c2cc(CN3CCN(Cc4ccnc(-c5cc(OC)c(OC)c(OC)c5)c4)CC3)ccn2)cc1 [Example 25, N-[[2-(4-methoxyphenyl)pyridin-4-yl]methyl]-N′-[[2-(3,4,5-trimethoxyphenyl)pyridin-4-yl]methyl]-piperazine difumarate] | 78% | 70% |
| COc1cc(-c2cccc(CN3CCN(Cc4ccnc(-c5cc(OC)c(OC)c(OC)c5)c4)CC3)c2)cc(OC)c1OC [Example 18, N-[3-(3,4,5-trimethoxyphenyl)benzyl]-N′-[[2-(3,4,5-trimethoxyphenyl)pyridin-4-yl]methyl]piperazine difumarate] | 37% | 54% |
| COc1cc(-c2cc(CN3CCN(CCC/C=C/c4ccc(F)cc4)CC3)ccn2)cc(OC)c1OC [Example 42, N-[(E)-5-(4-fluorophenyl)-4-pentenyl]-N′-[[2-(3,4,5-trimethoxyphenyl)pyridin-4-yl]methyl]piperazine difumarate] | 54% | 56% |
| COc1cc(C(=O)OCCCN2CCCN(CCCOC(=O)c3cc(OC)c(OC)c(OC)c3)CC2)cc(OC)c1OC [Dilazep, dilazep, reference compound] | 0% | 12% |
| COc1cc(/C=C/CCCN2CCN(Cc3ccnc(-c4cc(OC)c(OC)c(OC)c4)c3)CC2)cc(OC)c1OC [Example 40, N-[(E)-5-(3,4,5-trimethoxyphenyl)-4-pentenyl-]-N′-[[2-(3,4,5-trimethoxyphenyl)pyridin-4-yl]methyl]piperazine difumarate] | 44% | 55% |
| COc1cc(-c2cccc(C(=O)N3CCN(Cc4ccnc(-c5cc(OC)c(OC)c(OC)c5)c4)CC3)c2)cc(OC)c1OC [Example 56, N-[3-(3,4,5-trimethoxyphenyl)benzoyl]-N′-[[2-(3,4,5-trimethoxyphenyl)pyridin-4-yl]methyl]piperazine] | 76% | 52% |
| COc1cc(-c2cc(CN3CCN(Cc4ccc5c(OC)c(OC)c(OC)cc5c4)CC3)ccn2)cc(OC)c1OC [Example 38, N-[(5,6,7-trimethoxynaphthalen-2-yl)methyl]-N′-[[2-(3,4,5-trimethoxyphenyl)pyridin-4-yl]methyl]-piperazine dimaleate] | 59% | 76% |
